Earlier results in patent US10292957B2, “Compositions and methods for treating fibromyalgia” (Quality IP Holdings, LLC, priority 2012, dated 2019).

Tests used:
hGH secretion = conditions: for Effect on hGH: other amino acids, literature
HGH-deficient adults = conditions: within months of hGH treatment
[1] = after subcutaneous injection of 0.06 IU, hGH deficient subjects
[2] = system: patients with fibromyalgia; conditions: 4 days treatment
[3] = system: women with fibromyalgia and low IGF-1 levels
[4] = system: fibromyalgia patients with low IGF-1 levels
[5] = system: patients with severe fibromyalgia and low insulin-like growth factor 1 levels

N=C(N)NCCC[C@H](N)C(=O)O [arginine]
Elevation of serum hGH levels (hGH secretion; 30 g, males): 8.6 fold | Increase of hGH levels (hGH secretion; intravenous infusion of 183 mg/kg body weight, females): > 20 fold

CSCC[C@H](N)C(=O)O [methionine]
Effect on hGH (hGH secretion): marked increases

N[C@@H](Cc1ccccc1)C(=O)O [phenylalanine]
Effect on hGH (hGH secretion): marked increases

N[C@@H](Cc1c[nH]cn1)C(=O)O [histidine]
Effect on hGH (hGH secretion): marked increases

NCCCC[C@H](N)C(=O)O [lysine]
Effect on hGH (hGH secretion): marked increases

NCCC[C@H](N)C(=O)O [ornithine]
Effect on hGH (hGH secretion): marked increases

hGH: human growth hormone, injectable
Lean body mass, skin thickness and muscle mass (HGH-deficient adults): gains | Mean levels of hGH reached [1]: 0.4 ng/mL | Plasma IGF-1 levels [2]: increase | Plasma IGF-BP3 levels [2]: increase | FIQ score and tender point score over the placebo group ([3]; at nine months): significant improvement | IGF-1 levels ([3]; daily subcutaneous injections): prompt and sustained increase | Tolerability of concomitant administration with standard therapy ([4]; no patients discontinued due to adverse events): well tolerated | Reduction in the mean number of tender points (pairs) compared to the control group ([4]; subcutaneous, added to standard therapy, one year, end of study): 60% | Pain ([5]; addition to the standard treatment, sustained action over time): effective in reducing pain | FIQ scores compared with placebo group ([5]; low-dose add-on to standard treatment, 120 patients): significantly improved
